For one data set, the target named is CDK2:Cyclin-E (Homo sapiens, UniProt P24941). Nature of the data set: CDK2 Screening Assay (33P-ATP FlashPlate). Type of data set: biochemical. The settings on record: 10 μM ATP; >10 or >100 = less than 50% inhibition at highest concentration tested. On the procedure:
A kinase reaction mixture was prepared containing 50 mM Tris-HCl pH=8, 10 mM MgCl2, 0.1 mM Na3PO4, 1 mM DTT, 10 μM ATP, 0.025 μM biotinylated histone-H1 peptide substrate and 0.2 μCuries per well ^33P-γ-ATP (2000-3000 Ci/mmol). 70 μL of the kinase reaction mixture was dispensed into the well of a streptavidin coated FlashPlate™ (Cat. # SMP103, NEN, Boston, Mass.). Then 1 μL of test compound stock in 100% DMSO was added to the wells resulting in a final concentration of 1% DMSO in the reaction with a 100 μl final reaction volume. Next, CDK2:Cyclin-E protein was diluted in 50 mM Tris-HCl pH=8.0, 0.1% BSA at a concentration of 1 ng per μL and 30 μL (30 ng enzyme per test well) was added to each well to initiate the reaction. The reaction was incubated for one hour at 30° C. At the end of the 1 h incubation, the reaction was terminated by aspirating the mixture from the plate and washing the wells twice with PBS containing 100 mM EDTA. The histone-H1 biotinylated peptide substrate became immobilized on the Flashplate™ and the incorporation of ^33P-γ-ATP was measured by reading the plate on a scintillation counter. Inhibition of the enzymatic activity of CDK2 was measured by observing a reduced amount of ^33P-γ-ATP incorporated into the immobilized peptide. […]

For another data set, the system named is A375 malignant melanoma. Nature of the data set: Inhibition of cell proliferation (14C-thymidine incorporation), A375. Type of data set: cell-based, human. The protocol:
The ability of a test compound to inhibit the proliferation of cell growth was determined by measuring incorporation of ^14C-labelled thymidine into newly synthesized DNA within the cells. This method was used on cell lines derived from carcinomas originating from several tissues such as HeLa cervical adenocarcinoma (American Type Culture Collection (ATCC), Virginia, Cat. #CCL-2), A375 malignant melanoma (ATCC CRL-1619), and HCT-116 colon carcinoma (CCL-247). In this way the effect of a compound on cell growth of cells with many different phenotypes can be determined. Cells were trypsinized and counted and 3000-8000 cells were added to each well of a 96-well CytoStar tissue culture treated scintillating microplate (Amersham #RPNQ0160) in complete medium in a volume of 100 μl. Cells were incubated for 24 hours in complete medium at 37° C. in an atmosphere containing 5% CO2.
Next, 1 μl of test compound in 100% DMSO was added to the wells of the plate. DMSO only was added to control wells. Cells were incubated for 24 more hours in complete medium at 37° C. in an atmosphere containing 5% CO2. Methyl ^14C-thymidine 56 mCi/mmol (NEN #NEC568 or Amersham #CFA532) was diluted in complete medium and 0.2 uCi/well was added to each well of the CytoStar plate in a volume of 20 ul. The plate was incubated for 24 hours at 37° C. plus 5% CO2 in drug plus ^14C-thymidine. The contents of the plate were discarded into a ^14C radioactive waste container by inverting the plate and the plate was washed twice with 200 μl PBS.
200 μl of PBS was added to each well. The top of the plate was sealed with a transparent plate sealer and a white plate backing sealer (Packard #6005199) was applied to the bottom of the plate. The degree of methyl ^14C-thymidine incorporation was quantified on a Packard Top Count.
A general note: Uptake of a labelled nucleoside into DNA is a usual measure of proliferation.

Data set [1] can be described thus: Standard Rat Pharmacokinetics (PK). In kind it is in vivo. The settings on record: for Cmax: rat plasma; for bioavailability: plasma. The protocol:
The conversion of prodrug to active form was evaluated using a standard rat PK protocol. The following procedure may be followed.
Rats were dosed intravenously (IV) at the level of 1.5-3 mg/kg and by oral gavage (PO) at the level of 10-30 mg/kg with prodrug candidate. For each study, four rats were used for IV dosing and four rats were used for PO dosing. Prodrug was typically formulated for IV dosing as a solution in 10% W/V solutol in 5% dextrose in sterile water vehicle (D5W). Prodrug was typically formulated for oral dosing as a uniform suspension in 0.5% methylcellulose vehicle. Blood samples (0.5 mL) were collected into heparinized tubes post dose via orbital sinus puncture. For IV dosing, blood samples were collected at 5, 15 and 30 mins, 1, 2, 4, 6, 8, and 24 hrs after the dosing. For PO dosing, blood samples were collected at 30 mins, 1, 2, 4, 6, 8 and 24 hrs. Blood samples were centrifuged for cell removal, and precisely 200 μL of plasma supernatant was then transferred to a clean vial, placed on dry ice, and subsequently stored in a −70° C. freezer prior to analysis. Results were calculated by WinNonlin Pro version 3.1. Plasma levels were determined and the oral and intravenous area under the concentration vs. time curve (AUC) were compared to determine the % bioavailability (% F) by the following formula: Dose(IV)*AUC(oral)/Dose (oral)*AUC(IV).

Where [2] appears, read: IV 3 mg/kg of prodrug, read-out: Prodrug Cmax (μM) IV.
[3] abbreviates: PO 30 mg/kg of prodrug, read-out: Prodrug Cmax (μM) PO.
Setting [4] is: rat, IV/PO 3/30 mg/kg, Dose(IV)*AUC(oral)/Dose(oral)*AUC(IV).
Setting [5] is: rat, IV/PO 2/10 mg/kg, Dose(IV)*AUC(oral)/Dose(oral)*AUC(IV).
[6] abbreviates: IV 2 mg/kg of prodrug, read-out: Prodrug Cmax (μM) IV.
Setting [7] is: PO 10 mg/kg of prodrug, read-out: Prodrug Cmax (μM) PO.

Structures can show the parent of a compound that is named as a salt. Where two headings read alike, the source gives them in different places.

As a reminder, the IC50 is the concentration that gives 50% inhibition. Lower therefore signals higher potency. In general, Cmax refers to the maximum level reached in the sampled fluid or tissue. On to “4-[5-amino-1-(2,6-difluoro-benzoyl)-1H-[1,2,4]triazol-3-ylamino]-N-propionyl-benzenesulfonamide [Compound 20]”, for which the IC50 against CDK2:Cyclin-E is 0.28 µM; in the data set with A375 malignant melanoma, over 10 µM. The Cmax in data set [1] (setting [2]) came to 33.5 µM; in data set [1] (setting [3]), 0.02 µM. Moreover, the “% F” value in data set [1] (setting [4]) worked out at 0.34%.

The term bioavailability denotes dose-corrected exposure relative to a reference, in per cent. Read a low bioavailability as little systemic uptake. Take `Nc1nc(Nc2ccc(S(=O)(=O)NC(=O)CCC(=O)O)cc2)nn1C(=O)c1c(F)cccc1F` [Compound 1, 4-{4-[5-amino-1-(2,6-difluoro-benzoyl)-1H-[1,2,4]triazol-3-ylamino]-benzenesulfonylamino}-4-oxo-butyric acid]: the 50% inhibitory concentration (IC50) against CDK2:Cyclin-E came out at 0.07 µM; in the data set on A375 malignant melanoma (Homo sapiens, A-375) it was 20.3 µM. Also, the bioavailability in data set [1] (setting [4]) came out at 1%. The values for the Cmax in data set [1] (setting [2]) and in data set [1] (setting [3]) were 47 µM and 0.36 µM, respectively.

Take `NCC(=O)NS(=O)(=O)c1ccc(Nc2nc(N)n(C(=O)c3c(F)cccc3F)n2)cc1` [Compound 2, N-(2-amino-acetyl)-4-[5-amino-1-(2,6-difluoro-benzoyl)-1H-[1,2,4]triazol-3-ylamino]-benzenesulfonamide]: the 50% inhibitory concentration (IC50) came out at 0.12 µM against CDK2:Cyclin-E and 9.45 µM in the data set with A375 malignant melanoma (Homo sapiens, A-375). The bioavailability in data set [1] (rat, IV/PO 1.5/15 mg/kg, Dose(IV)*AUC(oral)/Dose(oral)*AUC(IV)) stood at 0%. The Cmax in data set [1] (IV 1.5 mg/kg of prodrug, read-out: Prodrug Cmax (μM) IV) is 11.8 µM.

As for `COCCOCC(=O)NS(=O)(=O)c1ccc(Nc2nc(N)n(C(=O)c3c(F)cccc3F)n2)cc1` [Compound 3, 4-[5-amino-1-(2,6-difluoro-benzoyl)-1H-[1,2,4]triazol-3-ylamino]-N-[2-(2-methoxy-ethoxy)-acetyl]-benzenesulfonamide], the IC50 was 0.25 µM against CDK2:Cyclin-E and over 100 µM in the data set with A375 malignant melanoma (Homo sapiens, A-375). In data set [1] (setting [4]), the bioavailability was 2%. Also, the Cmax in data set [1] (setting [2]) is 42.9 µM; in data set [1] (setting [3]), 0.32 µM.

Consider `Nc1nc(Nc2ccc(S(=O)(=O)NC(=O)Cn3cnnn3)cc2)nn1C(=O)c1c(F)cccc1F` [Compound 4, 4-[5-amino-1-(2,6-difluoro-benzoyl)-1H-[1,2,4]triazol-3-ylamino]-N-(2-tetrazol-1-yl-acetyl)-benzenesulfonamide], for which the IC50 on CDK2:Cyclin-E is 0.43 µM; with A375 malignant melanoma (Homo sapiens, A-375) it was over 100 µM. In data set [1] (setting [4]), this compound registered a bioavailability of 0%. In data set [1] (setting [2]), the Cmax worked out at 23.5 µM.

Take `CN1CCN(CCC(=O)NS(=O)(=O)c2ccc(Nc3nc(N)n(C(=O)c4c(F)cccc4F)n3)cc2)CC1` [Compound 5, 4-[5-amino-1-(2,6-difluoro-benzoyl)-1H-[1,2,4]triazol-3-ylamino]-N-[3-(4-methyl-piperazin-1-yl)-propionyl]-benzenesulfonamide]: the IC50 on CDK2:Cyclin-E was 0.27 µM; in the data set with A375 malignant melanoma (Homo sapiens, A-375), over 100 µM. The compound also gave a bioavailability in data set [1] (rat, IV/PO 1.7/17 mg/kg, Dose(IV)*AUC(oral)/Dose(oral)*AUC(IV)) of 0%. Also, the Cmax in data set [1] (IV 1.7 mg/kg of prodrug, read-out: Prodrug Cmax (μM) IV) was found to be 23.2 µM.

With `CN(C)CC(=O)NS(=O)(=O)c1ccc(Nc2nc(N)n(C(=O)c3c(F)cccc3F)n2)cc1` [Compound 6, 4-[5-amino-1-(2,6-difluoro-benzoyl)-1H-[1,2,4]triazol-3-ylamino]-N-(2-dimethylamino-acetyl)-benzenesulfonamide], the IC50 was 0.32 µM against CDK2:Cyclin-E and over 100 µM in the data set with A375 malignant melanoma (Homo sapiens, A-375). Moreover, in data set [1] (setting [4]), the bioavailability came out at 0%. Also, the Cmax in data set [1] (setting [2]) is 25.2 µM.

For the compound `Nc1nc(Nc2ccc(S(=O)(=O)NC(=O)CCN3CCOCC3)cc2)nn1C(=O)c1c(F)cccc1F` [Compound 7, 4-[5-amino-1-(2,6-difluoro-benzoyl)-1H-[1,2,4]triazol-3-ylamino]-N-(3-morpholin-4-yl-propionyl)-benzenesulfonamide], the IC50 is 0.12 µM on CDK2:Cyclin-E and over 100 µM in the data set on A375 malignant melanoma (Homo sapiens, A-375). In data set [1] (setting [4]), this compound displayed a bioavailability of 0%. Besides, the Cmax in data set [1] (setting [2]) was 20.5 µM.

Take `CCOC(=O)CCC(=O)NS(=O)(=O)c1ccc(Nc2nc(N)n(C(=O)c3c(F)cccc3F)n2)cc1` [Compound 8, 4-{4-[5-amino-1-(2,6-difluoro-benzoyl)-1H-[1,2,4]triazol-3-ylamino]-benzenesulfonylamino}-4-oxo-butyric acid ethyl ester]: the IC50 is 0.06 µM against CDK2:Cyclin-E and over 10 µM in the data set with A375 malignant melanoma (Homo sapiens, A-375). For the same compound, the bioavailability in data set [1] (setting [4]) is 0.17%. In addition, the Cmax in data set [1] (setting [2]) is 72.2 µM; in data set [1] (setting [3]), 0.19 µM.

`COCCOCCOCC(=O)NS(=O)(=O)c1ccc(Nc2nc(N)n(C(=O)c3c(F)cccc3F)n2)cc1` [Compound 9, 4-[5-amino-1-(2,6-difluoro-benzoyl)-1H-[1,2,4]triazol-3-ylamino]-N-{2-[2-(2-methoxy-ethoxy)-ethoxy]-acetyl}-benzenesulfonamide]: the IC50 was 0.44 µM against CDK2:Cyclin-E and over 10 µM in the data set on A375 malignant melanoma (Homo sapiens, A-375). Moreover, in data set [1] (setting [5]), the bioavailability amounted to 0%.

Regarding `COCCOCCOCC(=O)Nc1nc(Nc2ccc(S(N)(=O)=O)cc2)nn1C(=O)c1c(F)cccc1F` [Compound 10, N-[2-(2,6-difluoro-benzoyl)-5-(4-sulfamoyl-phenylamino)-2H-[1,2,4]triazol-3-yl]-2-[2-(2-methoxy-ethoxy)-ethoxy]-acetamide], the IC50 on CDK2:Cyclin-E was 0.3 µM; in the data set with A375 malignant melanoma (Homo sapiens, A-375) it was over 100 µM. For the same compound, the bioavailability in data set [1] (setting [5]) was 0%. Also, in data set [1] (setting [6]), the Cmax worked out at 67.3 µM.

For `Nc1nc(Nc2ccc(S(=O)(=O)NC(=O)CCCC(=O)O)cc2)nn1C(=O)c1c(F)cccc1F` [Compound 11, 5-{4-[5-amino-1-(2,6-difluoro-benzoyl)-1H-[1,2,4]triazol-3-ylamino]-benzenesulfonylamino}-5-oxo-pentanoic acid], the half-inhibitory concentration (IC50) was 1.53 µM against CDK2:Cyclin-E and over 100 µM with A375 malignant melanoma (Homo sapiens, A-375). The bioavailability in data set [1] (setting [5]) was 0%. For the same compound, the Cmax in data set [1] (setting [6]) is 81.8 µM; in data set [1] (setting [7]) it was 0.346 µM.

For the compound `Nc1nc(Nc2ccc(S(=O)(=O)NC(=O)COCCOCCOCC(=O)O)cc2)nn1C(=O)c1c(F)cccc1F` [Compound 12, {2-[2-(2-{4-[5-amino-1-(2,6-difluoro-benzoyl)-1H-[1,2,4]triazol-3-ylamino]-benzenesulfonylamino}-2-oxo-ethoxy)-ethoxy]-ethoxy}-acetic acid.2TFA salt], the IC50 against CDK2:Cyclin-E was 0.08 µM; in the data set with A375 malignant melanoma (Homo sapiens, A-375), over 10 µM. Moreover, in data set [1] (setting [5]), the bioavailability is 0%. The Cmax in data set [1] (setting [7]) stood at 0.04 µM.

With `Nc1nc(Nc2ccc(S(=O)(=O)NC(=O)[C@@H](N)CO)cc2)nn1C(=O)c1c(F)cccc1F` [Compound 13, 4-[5-amino-1-(2,6-difluoro-benzoyl)-1H-[1,2,4]triazol-3-ylamino]-N—((S)-2-amino-3-hydroxy-propionyl)-benzenesulfonamide], the IC50 on CDK2:Cyclin-E was 0.14 µM; in the data set on A375 malignant melanoma (Homo sapiens, A-375) it was over 10 µM. In data set [1] (setting [5]), the bioavailability was 0%. Moreover, the Cmax in data set [1] (setting [6]) stood at 8.15 µM.

For the origin of these results see patent US7888380B2, “1,2,4-Triazolylaminoaryl (heteroaryl) sulfonamide derivatives” (Janssen Pharmaceutica, N.V., priority 2004, dated 2011).
